Measured values published in patent publication US9878021B2, “Compositions and methods for treatment of retinal degenerative diseases” (MOR RESEARCH APPLICATIONS LTD., priority 2013, dated 2018).

Legend:
Assay type in all cases: cell-based
[1] = test system: RPE cells; assay: Conditioned media (SASP) applied on fresh RPE cells, morphology; conditions: applied 72 hours
Procedure: The most significant effect of senescence, is the acquisition of a senescence-associated secretory phenotype (SASP). SASP can convert senescent cells to proinflammatory cells that promote the secretion of chemokines and cytokines that can affect the microenvironment, including in the human retina (16, 17). To examine the role of TAK1 in this process, RPE cells were treated with TAK1 inhibitor or with H2O2, alone or in combination. After 2 weeks, the media was collected from the three separate treatments, centrifuged and the supernatants (conditioned media) were applied on fresh RPE cells for 72 hours.

[2] = test system: RPE cells; assay: RPE cell size quantification (hypertrophy); conditions: TAK1 inhibition combined with oxidative stress, compared to stressed and normal cells
Procedure: N=40 cells for each treatment.
One of the hallmarks of RPE senescence is cellular hypertrophy. RPE cell size is approximately […]; but upon oxidative stress or genetic mutation RPE cells can undergo enlargement.

[3] = test system: RPE cells; assay: SA-β-gal (senescence marker) staining
[4] = test system: p53, phospho-p38 in RPE cells; assay: Western blot analysis of p53 and phospho-p38
Procedure: Western blot analysis was performed by standard protocols (11), p53, p38, phospho-p38, GADPH, and TAK1; antibodies were obtained from Enco, Israel.

[5] = test system: ARPE-19 cells; assay: Cell viability / proliferation XTT assay
Procedure: Cell viability assays ARPE-19 cells were seeded in 96-well plates (5000 cells/well) in full medium and were pretreated with the TAK1 inhibitor 5Z-7-oxozeaenol (1 μM) or left untreated for 1 hour. Their viability was then assayed by the XTT assay (cell proliferation kit cat #20-300-1000; Beit Haemek, Israel).
(§1) To determine possible toxicity of anisomycin to RPE cells, RPE cells were treated with anisomycin at different concentration for 5 minute periods. Following treatment, the medium was replaced and fresh medium was added. 72 hours post-treatment, the cells were photographed. […] Their viability was then assayed by the XTT assay.

[6] = test system: RPE cells (ARPE-19); assay: FACS cell-cycle analysis by DNA content (FL2A)
Procedure: (§2) Double-staining (annexin and propidium iodide (PI)) assay of RPE cells. RPE cells (ARPE-19, available from ATCC) were treated for one hour with the TAK1 inhibitor {5Z-7-oxozeaenol (1 μM)}, following 200 μM H2O2 for one hour or left untreated. The cells were then washed with fresh medium and after 24 hours were trypsinized, stained, and analyzed by FACS. The percentage of cells in each cell-cycle phase (G1/G0, S, and G2/M) was determined by its DNA content (FL2A).

[7] = test system: RPE cells (ARPE-19); assay: Double-staining (annexin and propidium iodide) FACS assay of RPE cells; conditions: TAK1 inhibitor 1 μM 1 hour prior to H2O2 200 μM; untreated 1.25%, H2O2 alone 31%
Procedure: as §2

[8] = test system: RPE cells; assay: Anisomycin toxicity to RPE cells, cellular morphology; conditions: different concentrations for 5 minute periods, 72 hours post-treatment; low levels
Procedure: as §1

COc1cc(O)c2c(c1)/C=C/C[C@H](O)[C@H](O)C(=O)/C=C\C[C@H](C)OC2=O [5Z-7-oxozeaenol]
phenotype of fresh RPE cells receiving conditioned medium ([1]; medium from cells treated with TAK1 inhibitor alone, 2 weeks): hypertrophic phenotype similar to that of senescent cells | phenotype of fresh RPE cells receiving conditioned medium ([1]; medium from cells treated with both TAK1 inhibitor and H2O2, 2 weeks): aberrant morphology similar to that of atrophic RPE cells | cell size [2]: further increases cell size | number of cells expressing SA-β-gal ([3]; TAK1 inhibitor alone, relative to untreated cells): dramatically increased | SA-β-gal expression ([3]; pretreatment with TAK1 inhibitor then oxidative stress (H2O2), days 13 and 16): strongly increased | p38 phosphorylation ([4]; RPE cells under oxidative stress, pretreated with TAK1 inhibitor 1 μM): inhibition of p38 phosphorylation | p53 expression levels over a longer period ([4]; TAK1 inhibition, days, compared to untreated cells): reduced p53 expression levels slightly more than the untreated cells | time at which p53 expression peaked ([4]; pretreated cells under oxidative stress, control cells peak after 60 min): 10 min | proliferation rate (optical density) ([5]; 1 μM pretreatment 1 hour, untreated cells peak on day 4): slower proliferation rate that began to decrease after 3 days | G2/M arrest under oxidative stress ([6]; TAK1 inhibition prior to H2O2 treatment): reduced | percentage of cells at the G0/G1 stage ([6]; following TAK1 inhibition, of the total number): 89% | number of apoptotic cells expressed as a percentage of the total number [7]: 24%

COc1ccc(C[C@H]2NC[C@H](O)[C@H]2OC(C)=O)cc1 [anisomycin, (2R,3S,4S)-4-hydroxy-2-(4-methoxybenzyl)-pyrrolidin-3-yl acetate]
number of SA-β-Gal positive cells ([3]; H2O2 1 hour, 10 days growth, anisomycin 10 ng/ml 5 min, five more days, vs untreated cells exposed to oxidative stress): reduces the number of SA-β-Gal positive cells | rate of cell proliferation ([5]; oxidative stress and anisomycin): did not display reduction | toxicity to RPE cells (cellular morphology vs control) [8]: not toxic
